The source made the active and inactive calls. The calls are words filed in the database; no cut-off is given here.
What was measured:
[1] = system: L5178Y; experiment: Tested in vivo for antileukemic activity in the asparagine dependent L5178Y lymphatic leukemia cells in mice up to intraperitoneal doses 40 mg/kg; NA = no antitumor activity; format: functional, organism-based; design: dose 40 mg/kg; conditions: Mus musculus
[2] = system: L5178Y; experiment: Tested in vivo for antileukemic activity in the asparagine dependent L5178Y lymphatic leukemia cells in mice up to intraperitoneal doses 100 mg/kg; NA = no antitumor activity; format: functional, organism-based; design: dose 100 mg/kg; conditions: Mus musculus

NC(C(=O)O)C(F)C(=O)O (configuration not stated)
Activity [1]: inactive

NC(=O)C(F)C(N)C(=O)O (configuration not stated)
Activity [2]: inactive

Reference: ChEMBL document CHEMBL1121530, “Potential carcinostatics. 4. Synthesis and biological properties of erythro- and threo-beta-fluoroaspartic acid and erythro-beta-fluoroasparagine” (J Med Chem, 1980)
